Assay results reported in patent publication US20080139638A1, “METHOD OF INCREASING GROWTH HORMONE SECRETION” (priority 2006, published 2008).
Entries after “also recorded” stand apart in the source; their conditions may differ. Read-outs that look alike come from different tables or passages of the source.

Key:
growth hormone release = details: cited from earlier work
growth hormone [1] = details: 5.0 mg oral 60 minutes prior to bicycle exercise at 70% VO2max; cited from earlier work
growth hormone secretion = experiment: Serum growth hormone (ELISA/EIA) after oral melatonin supplementation 60 min before a single bout of resistance exercise (leg press); assay type: in vivo, human (healthy males)
Excerpt: Thirty, healthy males who had partaken in regular resistance training for at least one year prior to the study were selected [n=30(22.72±3.28 years, 180.94±6.24 cm in height, and 82.08±9.18 kg in weight)] served as participants in the study. All of the participants passed a mandatory medical screening and were considered either as low or moderate risk or with no contradictions to exercise as outline by the American College of Sports Medicine (ACSM). Furthermore, the participants had not consumed any nutritional supplements, with the exclusion of vitamins, during a two month period prior the experiment.
Participants were matched by relative strength level (strength/body weight) and then randomly assigned to one of three different protocols. The supplement protocol consisted of a double-blind with groups receiving either 0.5 mg or 5.0 if melatonin (N-Acetyl-5-methoxytryptamine) or 1.0 mg of dextrose as a placebo. Participants were allowed a light breakfast at 8:00 am, wherein they were asked to record the consumed items, and then were required to fast until 2 pm. Seventy-five minutes prior to each exercise session, (12:30 pm), an intravenous cannula was inserted into a foreman vein. At 60 minutes prior to the exercise session, a baseline blood sample was taken and the participant orally received a supplement of placebo according top that outlined above. During the 60 minutes prior to exercise, the participants were required to rest in a supine position and blood samples were taken every 15 minutes up to the initiation of the resistance exercise. The leg press exercise consisted of 7 sets of 7 slow repetitions at 85% of the weight of the respective participant's one repetition maximum. Each set was preformed over the course of 30 seconds followed by 150 seconds of rest. The entire resistance exercise session was 21 minutes in duration.
Venous blood samples were obtained into 10 ml vacutainer tubes via a 20 gauge intravenous catheter inserted into a foreman vein after the subcutaneous injection of a topical anesthetic (2% Xylocaine). Following the five hour fast, blood samples were obtained at 15-minute intervals commencing 60 minutes prior to the resistance exercise session and then at 15-minute intervals for 120 minutes following the resistance exercise session. Blood samples were allowed to stand for 10 minutes at room temperature and then centrifuged at 2,400 rpm for 10 minutes. The serum was then separated and stored at (−)20° C. until analysis.
Using enzyme-linked immunosorbent assays (ELISA), and enzyme-immunosorbent assays (EIA), serum samples were assayed for growth hormone (Diagnostics Systems Laboratories, Webster, Tex.) using a Wallac Victor-1420 microplate reader from Perkin-Elmer Life Sciences. Boston, Mass. at either 450 or 405 nm respectively. An ultra-sensitive assay with a lower detection limit of 0.66 pg/ml was used to determine the levels of growth hormone without any detectable interference of circulation glycoproteins, GH-dependent peptide hormones, or growth hormone binding protein.
Statistical analyses were performed using factorial analysis of variance (ANOVA) with repeated measures for each criterion value. Pairwise comparisons were used to differentiate significant differences among the three groups. All statistical procedures were performed using SPSS 11.0 software and a probability level of <0.05 was adopted throughout.
Short half-life hormones which are highly sensitive to diurnal variations, such as growth hormone, display great variability in the baseline values as was observed. As such, peak serum hormone responses before and after resistance exercise were subtracted from the baseline values of each participant in order to determine the increase in the growth hormone resulting from the treatments.

growth hormone [2] = details: no exercise, cited from earlier work

Structure (SMILES): COc1ccc2[nH]cc(CCNC(C)=O)c2c1 [melatonin, N-Acetyl-5-methoxytryptamine]
- effect on basal growth hormone levels (growth hormone release; 0.4 mg/kg intravenous): have been shown to have an effect
- effect on basal growth hormone levels (growth hormone release; 1 g oral): have been shown to have an effect
- effect on the 24-hr profile of growth hormone concentration (growth hormone release; small doses, less than 2 mg, oral): have not be shown to affect
- growth hormone compared to placebo, area under the curve (growth hormone [1]): significant increases
- time of growth hormone peak following exercise (growth hormone [1]): 30 min
- fold increase in serum growth hormone relative to placebo (growth hormone secretion; 0.5 mg melatonin oral 60 min prior to exercise, post-exercise period): approximately 3.16 fold
- serum growth hormone levels compared to placebo (in words) (growth hormone secretion; 0.5 mg melatonin oral, post-workout period): statistically significant (p=0.045) elevations
- serum growth hormone levels compared to placebo (in words) (growth hormone secretion; 0.5 mg melatonin oral, pre-exercise period): no statistical difference; also recorded: no significant increase
- increase in growth hormone of the 0.5 mg group compared to the 5.0 mg group (in words) (growth hormone secretion; 0.5 mg vs 5.0 mg melatonin oral, post-exercise): significantly greater increase
- serum growth hormone levels compared to placebo (in words) (growth hormone secretion; 5.0 mg melatonin oral, post-workout period): statistically significant (p=0.045) elevations
- serum growth hormone levels compared to placebo (in words) (growth hormone secretion; 5.0 mg melatonin oral, pre-exercise period): increased relative to placebo
- fold increase in serum growth hormone relative to placebo (growth hormone secretion; 5.0 mg melatonin oral, pre-exercise period, peak standardized to baseline): ~2.35 fold
- plasma growth hormone concentrations (growth hormone [2]; 0.5 mg oral): significant increase
- time of peak plasma growth hormone values (growth hormone [2]; 0.5 mg oral): 60 min
- plasma growth hormone concentrations (growth hormone [2]; 5.0 mg oral): significant increase
- time of peak plasma growth hormone values (growth hormone [2]; 5.0 mg oral): 60 min
